Strand notation (5' to 3'): a small letter for the sugar, then the base; units joined by * are phosphorothioate-linked, units joined directly phosphodiester-linked; [ ] holds rarer units or linkages, { } end groups; capitals alone tell only the bases. k = constrained ethyl (cEt); [5mC] = 5-methylcytosine; d = 2'-deoxy (DNA)

For one data set, the system named is Yap1 mRNA. As to the kind of experiment: Antisense inhibition of human Yap1 in A-431 cells by cEt gapmers, single dose (Example 1, RTS4814). Format: cell-based. The following applies: A-431 cells, 5,000 cells per well, free uptake, 2,000 nM modified oligonucleotide, approx. 48 hours, RTS4814, normalized to RIBOGREEN; Table 3. Put shortly: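 Free uptake of 2,000 nM 3-10-3 cEt gapmer (16-mer, full phosphorothioate, 5-methylcytosines) in A-431 cells for ~48 h. Yap1 mRNA quantified by qRT-PCR with set RTS4814, normalized to total RNA (RiboGreen), and expressed as % of untreated control; asterisked values target the amplicon region.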
For the substance “715573 (kT*kA*kT*dA*dT*dA*dT*dG*dG*dT*dA*dG*dT*k[5mC]*kT*kA; antisense) [Compound 715573]”, the “YAP1 (% UTC)” value was 76 % UTC.

On to “715576 (kA*kA*k[5mC]*d[5mC]*dT*dT*dT*dA*d[5mC]*d[5mC]*dA*dA*dA*kA*k[5mC]*kG; antisense) [Compound 715576]”, for which the “YAP1 (% UTC)” value is on record as 80 % UTC.

Turning to “715579 (k[5mC]*kT*kG*dT*d[5mC]*dT*dG*dG*dA*dA*dT*dA*d[5mC]*kA*k[5mC]*kA; antisense) [Compound 715579]”, the “YAP1 (% UTC)” value is reported as 100 % UTC.

As to “715582 (kG*kT*k[5mC]*dA*dA*dG*d[5mC]*d[5mC]*dT*dG*dT*d[5mC]*dT*kG*kG*kA; antisense) [Compound 715582]”, the “YAP1 (% UTC)” value turned out to be 33 % UTC.

Regarding “715585 (kA*kA*kG*dG*dT*d[5mC]*dT*dG*dG*dA*dA*d[5mC]*dA*kG*kA*kT; antisense) [Compound 715585]”, the “YAP1 (% UTC)” value is listed as 73 % UTC.

For the substance “715588 (kA*kG*k[5mC]*dA*dG*d[5mC]*dT*dA*dA*d[5mC]*dA*dG*d[5mC]*kT*kT*kG; antisense) [Compound 715588]”, the “YAP1 (% UTC)” value was determined as 96 % UTC.

For the substance “715591 (k[5mC]*kT*kT*dT*dG*dG*d[5mC]*dA*dG*dA*dG*dA*dT*kA*kA*kA; antisense) [Compound 715591]”, the “YAP1 (% UTC)” value is listed as 41 % UTC.

In the case of “715594 (antisense kA*kT*kA*dT*dT*dT*d[5mC]*dT*dT*dT*dG*dG*d[5mC]*kA*kG*kA) [Compound 715594]”, the “YAP1 (% UTC)” value is 39 % UTC.

In the case of “715597 (antisense k[5mC]*kT*kG*dG*dT*dT*d[5mC]*dA*dT*dG*dG*d[5mC]*dT*kG*kA*kA) [Compound 715597]”, the “YAP1 (% UTC)” value came to 89 % UTC.

As for “715600 (antisense kA*kA*kT*dT*d[5mC]*d[5mC]*d[5mC]*dA*dA*dG*d[5mC]*dT*dA*k[5mC]*k[5mC]*k[5mC]) [Compound 715600]”, the “YAP1 (% UTC)” value was determined as 82 % UTC.

Regarding “715603 (antisense kG*k[5mC]*kA*d[5mC]*dA*dG*dA*dA*dT*dT*d[5mC]*d[5mC]*d[5mC]*kA*kA*kG) [Compound 715603]”, the “YAP1 (% UTC)” value was 106 % UTC.

Take “715606 (antisense kA*k[5mC]*k[5mC]*dA*dT*dA*dG*d[5mC]*dA*d[5mC]*dA*dG*dA*kA*kT*kT) [Compound 715606]”: the “YAP1 (% UTC)” value came to 88 % UTC.

Turning to “715609 (antisense kT*kG*kT*dG*dT*dA*dG*dG*d[5mC]*dT*dG*dA*d[5mC]*kT*kT*kA) [Compound 715609]”, the “YAP1 (% UTC)” value is 56 % UTC.

For “715612 (antisense kT*kA*k[5mC]*dT*dT*dT*dA*dA*dG*d[5mC]*d[5mC]*dA*d[5mC]*kA*kT*kG) [Compound 715612]”, the “YAP1 (% UTC)” value was 77 % UTC.

For “715615 (antisense k[5mC]*kG*kG*dA*dT*dA*dA*dA*dA*dA*dT*dT*dA*k[5mC]*kT*kT) [Compound 715615]”, the “YAP1 (% UTC)” value came out at 94 % UTC.

In the case of “715618 (antisense kA*kT*kA*dA*dG*dA*d[5mC]*dG*dG*dA*dT*dA*dA*kA*kA*kA) [Compound 715618]”, the “YAP1 (% UTC)” value was found to be 101 % UTC.

Take “715621 (antisense kT*kA*kA*dA*dA*dA*dA*dT*dA*dA*dG*dA*d[5mC]*kG*kG*kA) [Compound 715621]”: the “YAP1 (% UTC)” value worked out at 106 % UTC.

Staying with this data set, now noted: Table 1; A-431 cells, free uptake, 2,000 nM, approximately 48 hours, RTS4814; Yap1 mRNA relative to untreated control cells.
“715574 (kT*kA*k[5mC]*d[5mC]*dA*dA*dA*dA*d[5mC]*dG*dA*dG*dG*kG*kT*k[5mC]; antisense) [Compound 715574]”: the “YAP1 (% UTC)” value was found to be 118 % UTC.

Turning to “715577 (kG*k[5mC]*kA*dT*dT*d[5mC]*dA*d[5mC]*dA*dG*dA*dG*dT*kT*kA*kA; antisense) [Compound 715577]”, the “YAP1 (% UTC)” value came to 21 % UTC.

As to “715580 (kG*k[5mC]*k[5mC]*dT*dG*dT*d[5mC]*dT*dG*dG*dA*dA*dT*kA*k[5mC]*kA; antisense) [Compound 715580]”, the “YAP1 (% UTC)” value was 101 % UTC.

Turning to “715583 (kG*kG*kG*d[5mC]*d[5mC]*dA*d[5mC]*dA*dA*dA*dA*dT*dA*kA*kA*kA; antisense) [Compound 715583]”, the “YAP1 (% UTC)” value is given as 164 % UTC.

As to “715586 (kA*kA*kA*dA*dG*dG*dT*d[5mC]*dT*dG*dG*dA*dA*k[5mC]*kA*kG; antisense) [Compound 715586]”, the “YAP1 (% UTC)” value is given as 53 % UTC.

For “715589 (k[5mC]*k[5mC]*kA*dG*d[5mC]*dA*dG*d[5mC]*dT*dA*dA*d[5mC]*dA*kG*k[5mC]*kT; antisense) [Compound 715589]”, the “YAP1 (% UTC)” value was 107 % UTC.

On to “715592 (kT*kT*k[5mC]*dT*dT*dT*dG*dG*d[5mC]*dA*dG*dA*dG*kA*kT*kA; antisense) [Compound 715592]”, for which the “YAP1 (% UTC)” value is on record as 89 % UTC.

Regarding “715595 (antisense kT*k[5mC]*kA*dT*dG*dG*d[5mC]*dT*dG*dA*dA*dA*dT*kG*kA*kA) [Compound 715595]”, the “YAP1 (% UTC)” value was 104 % UTC.

As for “715598 (antisense k[5mC]*k[5mC]*k[5mC]*dA*dA*dG*d[5mC]*dT*dA*d[5mC]*d[5mC]*d[5mC]*dA*kA*kG*kA) [Compound 715598]”, the “YAP1 (% UTC)” value is 103 % UTC.

For “715601 (antisense kA*kG*kA*dA*dT*dT*d[5mC]*d[5mC]*d[5mC]*dA*dA*dG*d[5mC]*kT*kA*k[5mC]) [Compound 715601]”, the “YAP1 (% UTC)” value is on record as 106 % UTC.

For “715604 (antisense kT*kA*kG*d[5mC]*dA*d[5mC]*dA*dG*dA*dA*dT*dT*d[5mC]*k[5mC]*k[5mC]*kA) [Compound 715604]”, the “YAP1 (% UTC)” value worked out at 107 % UTC.

On to “715607 (antisense kT*k[5mC]*kA*d[5mC]*d[5mC]*dA*dT*dA*dG*d[5mC]*dA*d[5mC]*dA*kG*kA*kA) [Compound 715607]”, for which the “YAP1 (% UTC)” value stood at 116 % UTC.

Turning to “715610 (antisense kG*kG*k[5mC]*dT*dG*dT*dG*dT*dA*dG*dG*d[5mC]*dT*kG*kA*k[5mC]) [Compound 715610]”, the “YAP1 (% UTC)” value was determined as 87 % UTC.

As to “715613 (antisense kA*kT*kT*dA*d[5mC]*dT*dT*dT*dA*dA*dG*d[5mC]*d[5mC]*kA*k[5mC]*kA) [Compound 715613]”, the “YAP1 (% UTC)” value stood at 85 % UTC.

Regarding “715616 (antisense kG*kA*k[5mC]*dG*dG*dA*dT*dA*dA*dA*dA*dA*dT*kT*kA*k[5mC]) [Compound 715616]”, the “YAP1 (% UTC)” value turned out to be 95 % UTC.

“715619 (antisense kA*kA*kA*dT*dA*dA*dG*dA*d[5mC]*dG*dG*dA*dT*kA*kA*kA) [Compound 715619]”: the “YAP1 (% UTC)” value stood at 114 % UTC.

As to “715622 (antisense kA*kG*kT*dA*dA*dA*dA*dA*dA*dT*dA*dA*dG*kA*k[5mC]*kG) [Compound 715622]”, the “YAP1 (% UTC)” value is 137 % UTC.

Still in this data set, the particulars now being: Table 2; A-431 cells, free uptake, 2,000 nM, approximately 48 hours, RTS4814; Yap1 mRNA relative to untreated control cells.
On to “715575 (k[5mC]*k[5mC]*kT*dT*dT*dA*d[5mC]*d[5mC]*dA*dA*dA*dA*d[5mC]*kG*kA*kG; antisense) [Compound 715575]”, for which the “YAP1 (% UTC)” value came to 134 % UTC.

Consider “715578 (kT*kG*kG*d[5mC]*dA*dT*dT*d[5mC]*dA*d[5mC]*dA*dG*dA*kG*kT*kT; antisense) [Compound 715578]”, for which the “YAP1 (% UTC)” value turned out to be 50 % UTC.

With “715581 (kA*kA*kG*d[5mC]*d[5mC]*dT*dG*dT*d[5mC]*dT*dG*dG*dA*kA*kT*kA; antisense) [Compound 715581]”, the “YAP1 (% UTC)” value was found to be 106 % UTC.

On to “715584 (kG*kG*kT*d[5mC]*dT*dG*dG*dA*dA*d[5mC]*dA*dG*dA*kT*kT*kA; antisense) [Compound 715584]”, for which the “YAP1 (% UTC)” value is reported as 96 % UTC.

Turning to “715587 (kT*kG*kA*dA*dA*dA*dG*dG*dT*d[5mC]*dT*dG*dG*kA*kA*k[5mC]; antisense) [Compound 715587]”, the “YAP1 (% UTC)” value worked out at 79 % UTC.

Consider “715590 (kT*kT*kG*dG*d[5mC]*dA*dG*dA*dG*dA*dT*dA*dA*kA*kA*k[5mC]; antisense) [Compound 715590]”, for which the “YAP1 (% UTC)” value amounted to 84 % UTC.

For “715593 (antisense kA*kT*kT*dT*d[5mC]*dT*dT*dT*dG*dG*d[5mC]*dA*dG*kA*kG*kA) [Compound 715593]”, the “YAP1 (% UTC)” value worked out at 60 % UTC.

For the substance “715596 (antisense kG*kT*kT*d[5mC]*dA*dT*dG*dG*d[5mC]*dT*dG*dA*dA*kA*kT*kG) [Compound 715596]”, the “YAP1 (% UTC)” value stood at 104 % UTC.

Take “715599 (antisense kT*kT*k[5mC]*d[5mC]*d[5mC]*dA*dA*dG*d[5mC]*dT*dA*d[5mC]*d[5mC]*k[5mC]*kA*kA) [Compound 715599]”: the “YAP1 (% UTC)” value came out at 82 % UTC.

Regarding “715602 (antisense kA*k[5mC]*kA*dG*dA*dA*dT*dT*d[5mC]*d[5mC]*d[5mC]*dA*dA*kG*k[5mC]*kT) [Compound 715602]”, the “YAP1 (% UTC)” value was 110 % UTC.

With “715605 (antisense k[5mC]*kA*kT*dA*dG*d[5mC]*dA*d[5mC]*dA*dG*dA*dA*dT*kT*k[5mC]*k[5mC]) [Compound 715605]”, the “YAP1 (% UTC)” value turned out to be 112 % UTC.

With “715608 (antisense kA*kA*kT*dT*dG*dT*dA*dT*d[5mC]*d[5mC]*dA*dG*dA*k[5mC]*kA*kT) [Compound 715608]”, the “YAP1 (% UTC)” value came out at 100 % UTC.

On to “715611 (antisense k[5mC]*kT*kT*dT*dA*dA*dG*d[5mC]*d[5mC]*dA*d[5mC]*dA*dT*kG*kG*kT) [Compound 715611]”, for which the “YAP1 (% UTC)” value came out at 106 % UTC.

Turning to “715614 (antisense kA*kA*kA*dT*dT*dA*d[5mC]*dT*dT*dT*dA*dA*dG*k[5mC]*k[5mC]*kA) [Compound 715614]”, the “YAP1 (% UTC)” value worked out at 110 % UTC.

“715617 (antisense kA*kA*kG*dA*d[5mC]*dG*dG*dA*dT*dA*dA*dA*dA*kA*kT*kT) [Compound 715617]”: the “YAP1 (% UTC)” value is 98 % UTC.

For the substance “715620 (antisense kA*kA*kA*dA*dA*dT*dA*dA*dG*dA*d[5mC]*dG*dG*kA*kT*kA) [Compound 715620]”, the “YAP1 (% UTC)” value is 111 % UTC.
